Data reported in US9579364B2, “Methods for treating benign prostatic hypertrophy (BPH)” (New York University, priority 2002, dated 2017).
Marks after values point to notes of the source that are not given here. Bridge positions count the residues as written; N and C are the ends. Square brackets hold non-standard residues; d marks the D form. Peptide text beside a SMILES is read from it. dDab = NCC[C@@H](N)C(=O)O

Tests used:
[1] = cited from earlier work
[2] = system: all five somatostatin receptor subtypes; settings: cited from earlier work
IGF-IR signaling = settings: chemical library screen; cited from earlier work
[3] = system: prostate of intact 28 day old male mice; test: PQ401 or SS14 treatment of intact 28 day old male mice: prostate; type: in vivo
Procedure: To examine further the effect of various compounds on glandular and fibromuscular development of the prostate, somatostatin-14 (SS14, a native somatostatin) and an exemplary small molecule IGF-I receptor inhibitor PQ401 were assessed in a variety of animal models.
In a first experimental approach, the effect of treatment of intact 28 day old male mice with vehicle or PQ401 (a small molecule IGF-I receptor specific inhibitor) or somatostatin-14 (SS14; a native somatostatin) was evaluated. PQ401 and SS14 inhibit IGF-I action. For these experiments, N=5 mice per group. The results of these experiments are presented below in Tables 7-10: […]

[4] = system: prostate of castrated IGF-I^(−/−) null male mice; test: Morphometry of histological prostate sections, castrated IGF-I(-/-) null male mice treated 7 days; type: in vivo
Procedure: Groups of castrated IGF-I^(−/−) null male mice were treated with either vehicle, testosterone in silastic capsules, des(1-3) IGF-I by an infusion through an Alzet pump containing 20 μg per pump, or the combination of testosterone and IGF-I for a period of 7 days.
In order to determine which specific structure was affected by which hormone, entire urogenital complexes were embedded in paraffin blocks, including the prostate glands, coagulating glands, seminal vesicles, urethra, urinary bladder attached to parts of the ureter, vas deferens, and ampullary glands. These were carefully sectioned such that the areas of prostate development could be analyzed.
The prostates were then removed, fixed and examined histologically. Morphometric analysis was carried on 30 cross sections of the prostate taken from five different serial sections. Changes in the area of the lumen, epithelial layer and fibromuscular layer were determined. These counts were performed using a Provis ×70 microscope (Olympus) attached to an Olympus DP10 digital camera. Images were taken using a 20× apochromate objective and were captured digitally at a resolution of 386 pixels. Data were tested for statistical significance using the SPSS statistical computer program (SPSS, Inc., Chicago, Ill.). Since assumptions for a parametric test were not valid (Kolmogorov-Sminov p<0.05), all data were evaluated by Kruskall-Wallis analysis of variance and the Mann-Whitney U test as a multiple comparison method.

[5] = system: prostate of castrated IGF-I^(−/−) male mice; test: Prostate glandular tree development, castrated IGF-I(-/-) male mice treated 28 days; type: in vivo; settings: 28 days treatment
Procedure: (§1) These include transgenic mice overexpressing a GH antagonist (that binds to and inactivates GH receptors making the animals functionally deficient in GH), growth hormone releasing factor receptor (GHRH-R^−/−) knockout mice (Lit/Lit), and Ames (df/df) mice (Prop 1 Deficiency). Deficient prostate development in GH inhibitor overexpression animals was previously reported (see Ruan et al, Endocrinology 140:1984-1989, 1999). Analysis of development was determined by dissecting away the periprostatic fat and teasing the glandular structures from the connective tissue in a solution containing collagenase so that the entire glandular tree could be photographed for later structural analysis. Much the same as in the mice overexpressing the mutant growth hormone, the other GH deficient mice had significant impairment of prostate development (p<0.0002) including a reduction in the number of terminal duct tips (TDTs), the area of the prostate gland, the number of quaternary branches and the number of branch points (TABLE 3). Any differences in these GH deficient mice may in part be due to the fact that the different strains were not analyzed at exactly the same age (Lit/Lit 50 days old, Ames 47 days old and bGH transgenic 44 days of age). The n was also different which may have led to greater significance in the Lit/Lit mice.
To clearly differentiate between the effects of IGF-I and T on development of the prostate gland, hormone replacement experiments were conducted on IGF-I^(−/−) male mice that had been castrated. In addition to evaluating the effect of IGF-I and T on gland structure development described above, we also evaluated the relative effects of these hormones on development of the stromal compartment of the prostate and also on histology of the glandular compartment. This was accomplished by sectioning and staining the prostate to highlight aspects of development.
Castrated IGF-I^(−/−) male mice were treated with T (administered by silastic capsules embedded on the backs of animals, subcutaneously). Des (1-3) IGF-I (40 μg/pump) was also implanted subcutaneously.

[6] = system: probasin in epithelial cells of the prostate; test: Probasin immunostaining of prostate sections (FIG. 6); type: in vivo, mice; settings: FIG. 6(i-l)
Source text: FIG. 6 depicts the effect of IGF-1 and/or T on histological appearance of prostate glands during development. Sections are shown through prostate glands from control animals (a, e, i) and animals treated with T alone (b, f, j), IGF-I alone (c, g, k), and IGF-I plus T (d, h, i). […] (i-1) Probasin immunostaining, brown color in the epithelial cells of the prostate. Magnification ×400.
The relative effects of IGF-I and T on prostate development were also studied in histological sections of whole prostate. This allowed determination of such effects on glandular microstructure and the stromal compartment of the prostate.
FIG. 6 depicts sections through prostate glands from control animals (FIG. 6(a, e, i)), animals treated with T alone (FIG. 6(b, f, j)), IGF-I alone (FIG. 6(c, g, k)), and IGF-I plus T (FIG. 6(d, h, i)).

[7] = system: prostate of IGF-I^(−/−) null male mice; test: Restoration of prostate development in IGF-I(-/-) null male mice; type: in vivo
Source text: That IGF-I was also found to be essential for full prostate development was shown in a series of experiments employing IGF-I^(−/−) null male mice.

IGF-I receptor = IGF-I receptor immunopositive cells in prostate elements; type: in vivo
IGF-I = IGF-I by RIA in homogenates of prostate glands after bGH; type: in vivo; settings: 87 day old male mice, bGH 200 μg daily for 4 days; untreated 223
Procedure: IGF-I, as measured by RIA, was detected in homogenates of prostate glands from 87 day old male mice (223 ng/5 prostates). When bGH (200 μg daily for 4 days) was administered IGF-I rose to 418-526 ng/5 prostates. Serum IGF-I was 494 ng/ml in normal male mice. The IGF-I in prostate was likely produced there because bGH increases IGF-I mRNA in prostate.

[8] = system: prostate of castrated Ames dwarf mice; test: IGFBP-1 inhibition of GH-induced prostate development in castrated Ames dwarf mice; type: in vivo; settings: 10-wk-old castrated Ames dwarf mice, 7 d
Procedure: To determine whether IGF-I inhibition could impair prostate development induced by GH-stimulated IGF-I and normal development in eugonadal animals, the effect of IGFBP-1 was tested in the following two models.
Ames dwarf mice have impaired prostate development because they are deficient in GH. They are also deficient in prolactin, TSH, and gonadotrophins (Andersen et al., 1995, Dev Biol 172:495-503; the entire content of which is incorporated herein by reference). To determine if IGFBP-1 could prevent bGH-induced IGF-I action, 10-wk-old castrated Ames animals were treated with bGH with or without infusion of IGFBP-1 for 7 d. IGFBP-1 inhibited GH-induced fibromuscular and glandular development (Table 6).

[9] = system: prostate of Lit/Lit dwarf animals; test: bGH restoration of impaired prostate development in Lit/Lit dwarf animals; type: in vivo; settings: Lit/Lit dwarf mice
Procedure: as §1
The fact that GH treatment was capable of restoring impaired prostate development in GH deficient mice was shown in an experiment on Lit/Lit dwarf animals. Groups of animals were treated with either bGH (100 μg over 7 days by Alzet pump) or vehicle. The prostates were then removed and examined as described above. Treatment with bGH increased the number of TDTs from a mean of 48 (controls) to 61 (treated) p=0.011, the area of the gland from 0.71 cm^2 to 1.12 (NS), quaternary branching from 35 to 44 (p<0.01) and branch points from 37 to 46 (p=0.011).

[10] = castrated IGF-I knockout male mice, 7 days treatment
[11] = castrated at 56 days, hormones for 7 days (Table 5)

C[C@@H](O)[C@@H]1NC(=O)[C@H](CCCCN)NC(=O)[C@@H](Cc2c[nH]c3ccccc23)NC(=O)[C@H](Cc2ccccc2)NC(=O)[C@H](Cc2ccccc2)NC(=O)[C@H](CCCNC(=N)N)NC(=O)[C@H](NC(=O)[C@@H](N)Cc2ccc(O)cc2)CCNC(=O)[C@H](Cc2ccccc2)NC1=O [KE108] (H-Y[dDab]RFF[dW]KTF; lactam 2-C)
stability in human serum [1]: stable for several hours | affinity for all five somatostatin receptor subtypes [2]: extremely high affinity

COc1ccc(Cl)cc1NC(=O)Nc1cc(C)nc2ccccc12 [PQ401]
inhibition of IGF-IR signaling (IGF-IR signaling): potent inhibitor | area of the Longitudinal muscle ([3]; 28 day old male mice, controls 0.939): 0.868 mm^2 | total area of the Circular muscle ([3]; 28 day old male mice, controls 1.322): 0.789 mm^2 | % Reduction of prostate weight ([3]; intact 28 day old male mice, vs 28 day control): 31% | prostate weight ([3]; intact 28 day old male mice, control 26.8 ± 1.0, p < 0.0001): 18.4 ± 0.5 mg

C[C@]12CC[C@H]3[C@@H](CCC4=CC(=O)CC[C@@]43C)[C@@H]1CC[C@@H]2O [TESTOSTERONE, testosterone]
Area of prostatic component (mean values): Eptithelium [4, 10]: Eptithelium = 84,551.64 μm^2 | Area of prostatic component (mean values): Lumen [4, 10]: Lumen = 369,495.45 μm^2 | Area of prostatic component (mean values): Stroma (connective-muscle) [4, 10]: Stroma (connective-muscle) = 89,797.254 μm^2 | Area of prostatic components (mean values): Total [4, 10]: Total = 543,844.34 μm^2 | Percentage of area: Eptithelium [4, 10]: 15% | Percentage of area: Lumen [4, 10]: 69% | Percentage of area: Stroma (connective-muscle) [4, 10]: 16% | Mean area of prostatic component: Epithelium [4, 11]: 84 × 10^3 μm^2 | Mean area of prostatic component: Fibromuscular tissue [4, 11]: 89 × 10^3 μm^2 | Mean area of prostatic component: Lumen [4, 11]: 369 × 10^3 μm^2 | Mean section size [4, 11]: 543 × 10^3a μm^2 | percentage occupied: Epithelium [4, 11]: (15%)^a | percentage occupied: Fibromuscular tissue [4, 11]: (16%)^b | percentage occupied: Lumen [4, 11]: (69%)^a | 4°- branching, ventral prostate [5]: 8.0 ± 0.6 ^a | Area, dorsal prostate [5]: 0.15 ± 0.01 ^a cm^2 | Area, ventral prostate [5]: 0.16 ± 0.01 ^a cm^2 | Branch Points, ventral prostate [5]: 12.0 ± 1.2 ^ | Terminal Duct Tips, dorsal prostate [5]: 17.0 ± 1.2 ^a | Terminal Duct Tips, ventral prostate [5]: 16.3 ± 1.2 ^ | Width of TDTs, dorsal prostate [5]: 0.227 ± 0.003 ^b mm | Width of TDTs, ventral prostate [5]: 0.236 ± 0.003 ^b mm | probasin immunostaining in the epithelial cells of the prostate [6]: scattered number of probasin immunopositive epithelial cells | restoring impaired prostate development [7]: partially but significantly restored | % IGF-I receptor immunopositive cells, epithelium (IGF-I receptor; prostate epithelium): 0% | % IGF-I receptor immunopositive cells, fibromuscular (IGF-I receptor; prostate fibromuscular elements): 95 ± 0.4%

B1: bGH: growth hormone (bGH) given to GH deficient mice by Alzet pump (protein, UniProt P01246 27-217, looked up)
Somatotropin: AFPAMSLSGLFANAVLRAQHLHQLAADTFKEFERTYIPEGQRYSIQNTQVAFCFSETIPAPTGKNEAQQKSDLELLRISLLLIQSWLGPLQFLSRVFTNSLVFGTSDRVYEKLKDLEEGILALMRELEDGTPRAGQILKQTYDKFDTNMRSDDALLKNYGLLSCFRKDLHKTETYLRVMKCRRFGEASCAF
IGF-I in homogenates of prostate glands (RIA) (IGF-I): 418-526 ng/5 prostates | Epithelium [8]: 160.5 ± 4.0^c,d μm^2 (×10^3) | Fibromuscular [8]: 253.4 ± 18.6^a,b μm^2 (×10^3) | Lumen [8]: 274.7 ± 11.9^c,d μm^2 (×10^3) | Total [8]: 688.6 ± 32.4^a,b μm^2 (×10^3) | number of TDTs (mean) ([9]; bGH 100 μg over 7 days by Alzet pump, controls 48, p=0.011): 61 | area of the gland ([9]; bGH 100 μg over 7 days, controls 0.71, NS): 1.12 cm^2 | quaternary branching ([9]; bGH 100 μg over 7 days, controls 35, p<0.01): 44 | branch points ([9]; bGH 100 μg over 7 days, controls 37, p=0.011): 46 | restoring impaired prostate development [7]: no effect
